Reference: US20130267474A1, “NOVEL PHYTOCHEMICALS FROM EXTRACTS OF MAPLE SYRUPS AND MAPLE TREES AND USES THEREOF” (UNIVERSITY OF RHODE ISLAND, priority 2010, published 2013)
Like-named read-outs stand apart in the source and are kept apart here. Blank lines part the entries; values can stand above or below the compound they belong to.

Key:
[1] = DPPH radical scavenging (antioxidant) assay; type: biochemical; details: for IC50, DPPH radical scavenging, converted (ca.): conversion of the μM value
Protocol: The DPPH radical scavenging activity of ascorbic acid (vitamin C) and the synthetic commercial antioxidant, butylated hydroxytoluene (BHT) are also assayed as positive controls (see Table 10). […] Absorbance is determined after 30 min at 515 nm, and the scavenging capacity (SC) is calculated as SC %=[(A0−A1/A0)]×100, where A0 is the absorbance of the reagent blank and A1 is the absorbance of the test samples. The control contained all reagents except the compounds, and all tests are performed in triplicate.
Absorbance is determined after 30 min at 515 nm, and the scavenging capacity (SC) is calculated as SC %=[(A0−A1/A0)]×100 where A0 is the absorbance of the reagent blank, and A1 is the absorbance with test samples. The control contained all reagents except the compounds and all tests are performed in triplicate.

[2] = tested on: Caco-2 (human epithelial colorectal adenocarcinoma); experiment: MTS cytotoxicity / antiproliferative assay; type: cell-based
Protocol: (§1) Cell lines included three human colon cancer cells: HT-29 (human colon adenocarcinoma), HCT116 (human colon carcinoma) and Caco-2 (human epithelial colorectal adenocarcinoma). In addition, normal human colon cells are included: CCD-^18Co (human colon fibroblasts). All cell lines are obtained from the American Type Culture Collection (ATCC, Rockville, Md., USA) and maintained at the University of Rhode Island.
(§2) The assay is carried out to measure the IC50 values for samples. […] Test samples and a positive control, etoposide 4 mg/mL (Sigma), are solubilized in DMSO by sonication. […] Control wells are also included on all plates. […] Each point on the curve is […]. Data (see tables 6 to 9) are expressed as mean±SE for three replications on each cell line.

[3] = tested on: HT-29 (human colon adenocarcinoma); experiment: MTS cytotoxicity / antiproliferative assay; type: cell-based
Protocol: as §1, §2

[4] = tested on: HCT-116 (human colon carcinoma); experiment: MTS cytotoxicity / antiproliferative assay; type: cell-based
Protocol: as §1, §2

[5] = Table 10, mean ± standard deviation, 30 min, 515 nm, read-out: IC50 (μM), DPPH radical scavenging
[6] = Homo sapiens, HT-29, 48 h, read-out: Antiproliferative activity HT-29 48 h (IC50), 48 h, pure isolated compounds
[7] = Homo sapiens, HT-29, 48 h, read-out: HT-29 48 h(IC50), Table 6 maple compounds, 48 h, unit inferred
[8] = Homo sapiens, HT-29, 72 h, 72 h, pure isolated compounds, read-out: Antiproliferative activity HT-29 72 h (IC50)
[9] = Homo sapiens, HT-29, 72 h, Table 6 maple compounds, 72 h, unit inferred, read-out: HT-29 72 h(IC50)
[10] = Homo sapiens, HCT-116, 48 h, read-out: Antiproliferative activity HCT-116 48 h (IC50), 48 h, pure isolated compounds
[11] = Homo sapiens, HCT-116, 48 h, read-out: HCT-116 48 h(IC50), Table 6 maple compounds, 48 h, unit inferred
[12] = Homo sapiens, HCT-116, 72 h, 72 h, pure isolated compounds, read-out: Antiproliferative activity HCT-116 72 h (IC50)
[13] = Homo sapiens, HCT-116, 72 h, 72 h, range given for the group, read-out: IC50 against HCT-116 cells at 72 h (activity ranking)
[14] = Homo sapiens, HCT-116, 72 h, Table 6 maple compounds, 72 h, unit inferred, read-out: HCT-116 72 h(IC50)
[15] = Homo sapiens, Caco-2, 72 h, 72 h, pure isolated compounds, read-out: Antiproliferative activity Caco-2 72 h (IC50)
[16] = Homo sapiens, Caco-2, 72 h, Table 6 maple compounds, 72 h, unit inferred, read-out: Caco-2 72 h(IC50)
[17] = Homo sapiens, Caco-2, 48 h, read-out: Antiproliferative activity Caco-2 48 h (IC50), 48 h, pure isolated compounds
[18] = Homo sapiens, Caco-2, 48 h, read-out: Caco-2 48 h(IC50), Table 6 maple compounds, 48 h, unit inferred

- IC50 [1, 5]: 3000 ± 1120 µM
- IC50, DPPH radical scavenging, converted (ca.) [1]: ca. 660 μg/mL
- IC50 ([1]; running text, listed as butylatedhydroxytoluene, read-out: IC50, DPPH radical scavenging (text)): 2650 µM
- IC50 ([1]; running text, read-out: IC50, DPPH radical scavenging (text)): 3000 µM
Compound: Cc1cc(C(C)(C)C)c(O)c(C(C)(C)C)c1 [BHT, butylated hydroxytoluene, reference compound]

Compound: syringaldehyde [compound 16]
- IC50 [1, 5]: 2880 ± 44 µM

- IC50 [1, 5]: 946 ± 58.5 µM
Compound: lyoniresinol [compound 1]

- IC50 [1, 5]: 112 ± 5.1 µM
Compound: trimethyl gallic acid methyl ester [compound 18]

Compound: gallic acid [compound 17]
- IC50 [1, 5]: 703 ± 141 µM

- IC50 [1, 5]: 40.2 ± 13.4 µM
- IC50, DPPH radical scavenging, converted (ca.) [1]: ca. 7.08 μg/mL
- IC50 ([1]; listed as Vitamin C, read-out: IC50, DPPH radical scavenging (text)): 40 µM
- IC50 ([1]; listed as vitamin C, read-out: IC50, DPPH radical scavenging (text)): 58 µM
Compound: O=C1O[C@H]([C@@H](O)CO)C(O)=C1O [Ascorbic acid, reference compound]

- IC50 [1, 5]: 904 µM
Compound: COc1cc(C(O)C(CO)Oc2c(OC)cc(CCCO)cc2OC)ccc1O (stereo not drawn) [compound 30, erythro-1-(4-hydroxy-3-methoxyphenyl)-2-[4-(3-hydroxypropyl)-2,6-dimethoxyphenoxy]-1,3-propanediol]

- IC50 [1, 5]: 68.9 ± 5.7 µM
Compound: 2,4,5-trihydroxyacetophenone [compound 13]

Compound: O=C(O[C@H]1CO[C@H](CO)[C@@H](O)[C@@H]1O)c1cc(O)c(O)c(O)c1 [compound 72, ginnalin-C]
- Caco-2 48 h IC50 ([2]; 48 h, ginnalins): 35.0 ± 1.4 µg/mL
- Caco-2 72 h IC50 ([2]; 72 h, ginnalins): 29.8 ± 1.2 µg/mL
- IC50 ([2]; Table 6 maple compounds, 72 h, unit inferred, read-out: Caco-2 72 h(IC50)): 94.4 µM
- IC50 ([2]; read-out: Caco-2 48 h(IC50), Table 6 maple compounds, 48 h, unit inferred): 111 µM
- HT-29 48 h IC50 ([3]; 48 h, ginnalins): 33.8 ± 2.0 µg/mL
- HT-29 72 h IC50 ([3]; 72 h, ginnalins): 30.1 ± 1.3 µg/mL
- IC50 ([3]; Table 6 maple compounds, 72 h, unit inferred, read-out: HT-29 72 h(IC50)): 95.4 µM
- IC50 ([3]; read-out: HT-29 48 h(IC50), Table 6 maple compounds, 48 h, unit inferred): 107 µM
- HCT-116 48 h IC50 ([4]; 48 h, ginnalins): 27.0 ± 1.9 µg/mL
- HCT-116 72 h IC50 ([4]; 72 h, ginnalins): 22.3 ± 2.4 µg/mL
- IC50 ([4]; Table 6 maple compounds, 72 h, unit inferred, read-out: HCT-116 72 h(IC50)): 70.7 µM
- IC50 ([4]; read-out: HCT-116 48 h(IC50), Table 6 maple compounds, 48 h, unit inferred): 86.5 µM

Compound: COc1cc(C=O)cc(OC)c1O [compound 16, syringaldehyde]
- IC50 ([2]; Homo sapiens, Caco-2, 48 h, read-out: Antiproliferative activity Caco-2 48 h (IC50)): 59.4 ± 2.7 µM
- IC50 ([2]; Homo sapiens, Caco-2, 48 h, read-out: Caco-2 48 h(IC50)): 59.4 µM
- IC50 ([2]; Homo sapiens, Caco-2, 72 h, read-out: Antiproliferative activity Caco-2 72 h (IC50)): 35.9 ± 2.4 µM
- IC50 ([2]; Homo sapiens, Caco-2, 72 h, read-out: Caco-2 72 h(IC50)): 35.9 µM
- IC50 ([3]; Homo sapiens, HT-29, 48 h, read-out: Antiproliferative activity HT-29 48 h (IC50)): 90.7 ± 3 µM
- IC50 ([3]; Homo sapiens, HT-29, 48 h, read-out: HT-29 48 h(IC50)): 90.7 µM
- IC50 ([3]; Homo sapiens, HT-29, 72 h, read-out: Antiproliferative activity HT-29 72 h (IC50)): 68.6 ± 1.4 µM
- IC50 ([3]; Homo sapiens, HT-29, 72 h, read-out: HT-29 72 h(IC50)): 68.6 µM
- IC50 ([4]; Homo sapiens, HCT-116, 48 h, read-out: Antiproliferative activity HCT-116 48 h (IC50)): 66.8 ± 1.3 µM
- IC50 ([4]; Homo sapiens, HCT-116, 48 h, read-out: HCT-116 48 h(IC50)): 66.8 µM
- IC50 ([4]; Homo sapiens, HCT-116, 72 h, read-out: Antiproliferative activity HCT-116 72 h (IC50)): 56.3 ± 1.8 µM
- IC50 ([4]; Homo sapiens, HCT-116, 72 h, read-out: HCT-116 72 h(IC50)): 56.3 µM
- IC50 ([4]; Homo sapiens, HCT-116, 72 h, read-out: IC50 against HCT-116 cells at 72 h (activity ranking)): 42 to 67 µM

Compound: COc1cc(C(=O)O)cc(OC)c1O [compound 19, syringic acid]
- IC50 [3, 6]: 126 ± 1.8 µM
- IC50 [3, 7]: 126 µM
- IC50 [3, 8]: 116 ± 1.8 µM
- IC50 [3, 9]: 116 µM
- IC50 [4, 10]: 119 ± 1.3 µM
- IC50 [4, 11]: 119 µM
- IC50 [4, 12]: 108 ± 0.9 µM
- IC50 [4, 13]: 94 to 110 µM
- IC50 [4, 14]: 108 µM

Compound: O=C(O)c1cc(O)c(O)c(O)c1 [compound 17, gallic acid]
- IC50 [2, 15]: 89.3 ± 1.7 µM
- IC50 [2, 16]: 89.3 µM
- IC50 [4, 10]: 64.9 ± 2.3 µM
- IC50 [4, 11]: 64.9 µM
- IC50 [4, 12]: 42.1 ± 1.9 µM
- IC50 [4, 13]: 42 to 67 µM
- IC50 [4, 14]: 42.1 µM

Compound: COc1cc(/C=C/C(=O)O)ccc1O [Ferulic Acid]
- IC50 [3, 7]: 128 µM
- IC50 [3, 9]: 121 µM
- IC50 [4, 11]: 119 µM
- IC50 [4, 14]: 104 µM

Compound: COc1cc(CCCO)ccc1OC(CO)C(O)c1ccc(OC2OC(C)C(O)C(O)C2O)c(OC)c1 (stereo not shown) [compound 55]
- IC50 [3, 6]: 128.2 ± 1.1 µM
- IC50 [3, 8]: 121 ± 1.3 µM
- IC50 [4, 10]: 119 ± 1.4 µM
- IC50 [4, 12]: 104 ± 1.7 µM
- IC50 [4, 13]: 94 to 110 µM

Compound: O=C(O)/C=C/c1ccc(O)cc1 [p-Coumaric Acid]
- IC50 [4, 14]: 124 µM

Compound: Oc1ccc(O)c(O)c1 [compound 52, 4-hydroxycatechol]
- IC50 [2, 17]: 89.2 ± 1.9 µM
- IC50 [2, 15]: 78.6 ± 1.2 µM
- IC50 [3, 6]: 110 ± 2.3 µM
- IC50 [3, 8]: 100 ± 1.5 µM
- IC50 [4, 10]: 95 ± 3.4 µM
- IC50 [4, 12]: 57.7 ± 3.4 µM
- IC50 [4, 13]: 42 to 67 µM

Compound: COc1cc([C@@H](O)[C@@H](CO)Oc2ccc(CCCO)cc2OC)ccc1O [compound 6, erythro-guaiacylglycerol-β-O-4′-dihydroconiferyl alcohol]
- IC50 [2, 17]: 93.9 ± 2 µM
- IC50 [2, 18]: 93.9 µM
- IC50 [2, 15]: 88.5 ± 1 µM
- IC50 [2, 16]: 88.5 µM
- IC50 [3, 8]: 110 ± 2 µM
- IC50 [3, 9]: 110 µM
- IC50 [4, 10]: 107 ± 2.3 µM
- IC50 [4, 11]: 107 µM
- IC50 [4, 12]: 98.6 ± 3.2 µM
- IC50 [4, 13]: 94 to 110 µM
- IC50 [4, 14]: 98.6 µM

Compound: COc1cc(/C=C/CO)ccc1O [compound 21, (E)-coniferol]
- IC50 [2, 17]: 112 ± 2 µM
- IC50 [2, 18]: 116 µM
- IC50 [2, 15]: 96.4 ± 2.9 µM
- IC50 [2, 16]: 96.4 µM
- IC50 [3, 8]: 113 ± 1.9 µM
- IC50 [3, 9]: 113 µM
- IC50 [4, 10]: 111 ± 1.5 µM
- IC50 [4, 11]: 111 µM
- IC50 [4, 12]: 84.6 ± 1.9 µM
- IC50 ([4]; Homo sapiens, HCT-116, 72 h, 72 h, range given for the group, unit inferred, read-out: IC50 against HCT-116 cells at 72 h (moderately active group)): 75 to 85 µM
- IC50 [4, 14]: 84.6 µM
